Assay results published in patent US10772836B2, “Method for producing particles” (RICOH COMPANY, LTD., priority 2016, dated 2020).
Values belong to the compound of their own block, whether it stands above or below them.

What was measured:
[1] = Oral absorbability of […], blood drug concentration after oral administration (Test Example 6); format: in vivo; details: rat, plasma, male SD rats, single oral dose 10 mg/kg in terms of […]
Method: In order to evaluate an oral absorbability of the pharmaceutical particles produced in Example 2, the pharmaceutical particles of Example 2 and […] bulk powder were orally administrated to male SD rats (from 6 to 8 week-old, available from Japan SLC, Inc.) and then blood drug concentrations were measured over time. Each powder was suspended in water and administrated through a single-dose forced oral administration to the male SD rats at 10 mg/kg in terms of […]. After the oral administration, blood was collected from tail veins over time, transferred to heparinized micro test tubes, and cooled with ice immediately. After the cooling, the blood was rapidly centrifuged to obtain blood plasma. The resultant blood plasma was quantified by an ultra-high performance liquid chromatography (available from Waters) equipped with, as a detector, a single quadrupole mass spectrometer (ACQUITY SQD, available from Waters).

[2] = Evaluation test for dissolution property in intrapulmonary-environment imitating liquid (Test Example 7); format: physicochemical; details: 37 degrees Celsius, 30 spm
Method: Ten milligrams of the pharmaceutical particles were added to 100 mL of an intrapulmonary-environment imitating liquid (0.169 g of magnesium chloride, 5.016 g of sodium chloride, 0.249 g of potassium chloride, 0.059 g of anhydrous sodium sulfate, 0.306 g of calcium chloride dehydrate, 0.794 g of sodium acetate trihydrate, 2.170 g of sodium hydrogen carbonate, 0.080 g of sodium citrate dehydrate, 0.118 g of disodium hydrogen-phosphate, and 0.167 g of dipalmitoylphosphatidylcholine in 1 L of water). […] Thus, the “dissolution property” was evaluated.

[3] = test system: blood calcium concentration; experiment: Drug efficacy after transpulmonary administration, blood calcium concentration (Test Example 9); format: in vivo; details: male SD rats, transpulmonary 40 micrograms/animal in terms of CALCITONIN, time zero = 100%
Method: A powder preparation prepared using the pharmaceutical particles of Example 3 was evaluated for a drug efficacy after transpulmonary administration. The powder preparation was prepared by mixing the pharmaceutical particles of Example 3 with lactose (average particle diameter: 50 micrometers, RESPITOSE, available from DMV Japan) in an amount of 5 times as much as the amount of the pharmaceutical particles. The powder preparation was transpulmonary administrated (40 micrograms/animal in terms of CALCITONIN) to male SD rats (from 6 to 8 week-old, available from Japan SLC, Inc.) and then a blood calcium concentration after the administration was measured over time. As a control group, a simply mixed powder was prepared by molding a mixture of CALCITONIN bulk powder and lactose. The CALCITONIN has a pharmacological action of decreasing the blood calcium concentration. Therefore, the blood calcium concentration was selected as an indicator for evaluating the drug efficacy of the pharmaceutical particles of Example 3. The pharmaceutical particles were transpulmonary administrated by inserting an inhaler (DP-4, available from Ina Research Inc.) into the airway under inhalation anesthesia with isoflurane and feeding compressed air. A time point immediately before the transpulmonary administration was defined as time zero. Change in blood calcium concentration over time was evaluated assuming that a blood calcium concentration at the time zero was 100%. The blood calcium concentration was measured using a METALLOASSAY calcium (Ca) measurement LS kit CPZIII (available from Metallogenics Co., Ltd.).

- bioavailability [1]: 1.2%
- AUC(0-inf) [1]: 800 ± 400 ng·h/mL
- Cmax [1]: 100 ng/mL
- Tmax [1]: 1.8 ± 0.7 h
- half-life [1]: 2.9 ± 0.7 h
Compound: COc1ccc(/C=C/C(=O)Nc2ccccc2C(=O)O)cc1OC [Tranilast]

- Dissolution amount ([2]; time 0 hour): 0 µg/mL
- Dissolution amount ([2]; time 0.25 hour): 9.56 ± 0.03 µg/mL
- Dissolution amount ([2]; time 0.5 hour): 9.88 ± 0.13 µg/mL
- Dissolution amount ([2]; time 1 hour): 9.68 ± 0.20 µg/mL
- Dissolution amount ([2]; time 2 hour): 9.09 ± 0.04 µg/mL
- Dissolution amount ([2]; time 4 hour): 9.01 ± 0.44 µg/mL
- Dissolution amount ([2]; time 6 hour): 9.39 ± 0.14 µg/mL
- Dissolution amount ([2]; time 12 hour): 8.59 ± 0.15 µg/mL
- Dissolution amount ([2]; time 60 hour): 8.63 ± 0.02 µg/mL
Compound: Calcitonin [Calcitonin bulk powder]
- Blood calcium concentration ([3]; time 0 h): 100%
- Blood calcium concentration ([3]; time 0.25 h): 81.7 ± 11.6%
- Blood calcium concentration ([3]; time 0.5 h): 74.6 ± 0.9%
- Blood calcium concentration ([3]; time 1 h): 81.1 ± 10.1%
- Blood calcium concentration ([3]; time 2 h): 79.5 ± 7.1%
- Blood calcium concentration ([3]; time 4 h): 96.7 ± 5.1%
- Blood calcium concentration ([3]; time 6 h): 99.1 ± 12.6%
- Blood calcium concentration ([3]; time 8 h): 102.1 ± 15.9%
- Blood calcium concentration ([3]; time 12 h): 104.3 ± 13.8%
- Blood calcium concentration ([3]; time 24 h): 110.9 ± 5.5%
